Experimental data taken from EP3452027B1, “USE OF […] TREAT SEA LICE” (priority 2016, dated 2017).
Values after ≈ are worked out from the molar mass of the structure shown. Where two headings read alike, the source gives them in different places.

Assays:
[1] = tested on: Lepeophtheirus salmonis sea lice
Argulus = conditions: for Argulus detachment from goldfish and koi carp: after two hours
[2] = tested on: Lepeophtheirus salmonis sea lice; experiment: whole plant or invertebrate; conditions: 24 h
fish embryos = conditions: 100µM bergapten; cited from earlier work

Row | SMILES | concentrations at which no viable sea lice were observed ([1]; 24 hours post-exposure, microscopic observation) | Males EC90 ([1]; adult male L. salmonis, 24 hours post exposure) | Females LC50 ([1]; female, Lepeophtheirus salmonis (sea louse), in vivo) | Males LC50 ([1]; male, Lepeophtheirus salmonis (sea louse), in vivo) | Argulus detachment from goldfish and koi carp (Argulus; 2ppm nootkatone in tap water) | Argulus detachment from goldfish and koi carp (Argulus; 6ppm nootkatone in tap water) | mortality of Argulus (Argulus; in vivo) | EC50 ([2]; read-out: Females EC50) | EC90 ([2]; read-out: Females EC90, adult female (pre-ovigerous) L. salmonis, 24 hours post exposure) | LC50 ([2]; read-out: Females LC50) | LC50 ([2]; read-out: LC50 for the total sea lice population (dose that would kill 50% of the total population)) | EC50 ([2]; read-out: Males EC50) | EC90 ([2]; read-out: Males EC90, adult male L. salmonis, 24 hours post exposure) | LC50 ([2]; read-out: Males LC50) | fish embryos killed (fish embryos) | remaining viable embryos with defects in anterior-posterior patterning (fish embryos)
1 | C=C(C)[C@@H]1CCC2=CC(=O)C[C@@H](C)[C@]2(C)C1 [nootkatone] | ≥ 38 mg/L | 24.27 mg/L | 9.70 mg/L | 16.40 mg/L | no parasites could be seen | no parasites could be seen | 100% | 9.17 µg/mL (≈ 42 µM) | 13.4 µg/mL (≈ 61.5 µM) | 9.69 µg/mL (≈ 44.4 µM) | 13.5 µg/mL (≈ 62 µM) | 11.5 µg/mL (≈ 52.9 µM) | 24.3 µg/mL (≈ 111 µM) | 16.4 µg/mL (≈ 75.1 µM) |  | 
2 | COc1c2ccoc2cc2oc(=O)ccc12 [bergapten, 5-methoxypsoralen] |  |  |  |  |  |  |  |  |  |  |  |  |  |  | one third | half
